For one data set, the system named is RSV serotype A. Description: RSV infection of HEp-2 cells, FACS with FITC anti-RSV antibody. The format is cell-based, Respiratory syncytium virus (RSV). Conditions: HEp-2 cells, 4, 5 and 6 days, all APHS concentrations tested. The method, then: RSV infection of the HEp-2 cell line was performed as described elsewhere (Hament J-M et al., submitted for publication). Briefly, HEp-2 cells were recovered from the culture flasks by trypsinization. Concentrations of HEp-2 cells were determined by microscopic observation in order to have a confluent monolayer at the day of measurement. HEp-2 cells were incubated with APHS and infected with different dilutions of RSV in order to have a good infection at the day of measurement. […] The cells were washed with PBS^2+ (PBS containing 0.15 mM Ca^2+ and 0.5 mM Mg^2+) and incubated with murine-anti-RSV monoclonal antibody conjugated to fluorescein isothiocyanate (FITC) (DAKO, Cambridgeshire, UK) for 15 minutes at 37 °C. Afterwards, cells were washed and resuspended in PBS^2+. Percentage of fluorescent cells was analyzed by FACSCalibur flow cytometer (Becton Dickinson, CA, USA) with computer assisted evaluation data (CellQuest Pro).

In a further data set the test system is 4602. Description: Drug susceptibility assay (cell-killing MTT assay) in MT-2 cells. The following applies: Human immunodeficiency virus 1, MT2, 120 h.
The next data set relates to HEp-2 cells. The format is cell-based, Human. How it is done:
HEp-2 cells were seeded in 96-wells plates in the presence of APHS for 4, 5 and 6 days. Concentrations of HEp-2 cells were determined by microscopic observation in order to have a confluent monolayer at the day of measurement. Afterwards a cellular viability assay was performed on these cells.

Another data set concerns HFF and BHK cells. Description: Cellular viability assay (MTT) of HFF overlayed with BHK cells. The format is cell-based, Human.
Assay in data set [1]: as above
The following applies: hff and bhk cells; read-out: TC50 (the source's name). It counts as cell-based, Human.

For data set [2] the following is noted: concentrations of APHS up to 100 mg/kg; cited from earlier work.
The next data set concerns 41+215Y. In words: Drug susceptibility assay (cell-killing MTT assay) in MT-2 cells. Conditions: AZT-resistant strain 41+215Y, 5 days.
For a further data set, the system named is 184V. The description is as above. Conditions: Human immunodeficiency virus 1, MT2, 120 h.
The next data set in a line: in vitro. Conditions: human, pbmc.
A further data set has as its system HXB2. In words: Drug susceptibility assay (cell-killing MTT assay) in MT-2 cells. Conditions: Human immunodeficiency virus 1, HXB2, MT2, 120 h.
In the next data set the test system is PBMC. Description: Cellular viability assay (MTT) of PBMC. Conditions: PBMC viability, 7 days.
For another data set, the system named is Mouse L cells. In words: Cytotoxicity in mouse L cells by microscopic observation. The method, then:
(§1) After 24h, the cytopatic effect (CPE) of the virus and the cytotoxicity of the compounds were scored by microscopic observation.

The nature of data set [3]: Cellular viability assay (MTT) of PBL. The format is cell-based. The following applies: human, 7 days, read-out: TC50.
A further data set concerns CrFK cells. Description: Cellular viability assay (MTT) of CrFK cells. The format is cell-based, feline.
For the next data set, the system named is HIV-1AT. Description: HIV-1 infection of PBMC, p24-core antigen ELISA. It counts as cell-based. The following applies: Human immunodeficiency virus 1, 168 h; PBMC infected with HIV-1AT, p24 antigen after 7 days. The method, then:
(§2) To correct for the input virus, an extra control consisting of medium containing the same amount of input virus as added to the cells was included in the experiment. The amount of p24 in this control was subsequently subtracted from the p24 values of the samples in order to obtain the exact amount of p24 produced by the cells. p24-core antigen quantification by ELISA After 2 or 7 days incubation, samples of the supernatants were collected, inactivated by addition of Empigen (Calbiochem, La Jolla, CA, USA) and by heat inactivation at 56°C for 30 min. p24-core antigen concentration was determined by an enzyme linked immunoabsorbent assay (ELISA) (AMPAK™, DAKO, Cambridgeshire, UK) as described previously ^18,19. The optical density values were converted into p24 concentration (ng/ml) with the use of a calibration curve made by serial dilutions of recombinant p24 protein (NIBSC, UK) that was submitted to the same treatment as the samples.

In the next data set the test system is HIV-1HXB2. Description: HIV-1 infection of PBMC, p24-core antigen ELISA. The format is cell-based. The following applies: Human immunodeficiency virus 1, 168 h; PBMC infected with HIV-1HXB2, p24 antigen after 7 days. The method, then: as §2
Another data set relates to 3096. Description: Drug susceptibility assay (cell-killing MTT assay) in MT-2 cells. The following applies: Human immunodeficiency virus 1, MT2, 120 h.
The subject of data set [4] is several HIV-1 strains (macrophage-tropic and/or lymphocytotropic). In words: HIV-1 replication in primary cells (summary over strains and cell types). It counts as cell-based. Conditions: Human immunodeficiency virus 1, read-out: 50% inhibitory concentration values. The method, then:
as §2

Another data set has as its system HIV-1Ba-L. In words: HIV-1 infection of monocyte-derived macrophages (MDM), p24-core antigen ELISA. It counts as cell-based. The following applies: Human immunodeficiency virus 1, Macrophage, 168 h; MDM infected with HIV-1Ba-L, p24 antigen after 7 days. The method, then:
as §2

The subject of the next data set is MHV-A59. Description: MHV infection of mouse L cells, CPE scoring. It counts as cell-based, Mouse hepatitis virus (MHV). The following applies: 24h, 143 to 0.009 µM. How it is done:
as §1

Description for 184V: (§3) The cells were maintained at 37°C, 5% CO2. One day prior to the experiments, the cells were passaged 1:1 in a concentration of 1 × 10^6 cells/ml.
(§4) The genes that contain the drug resistance mutations are excised from the clinical isolates and cloned into the genetic background of HXB2. Thus all tested HIV-1 strains have the same genetic background. […] This strain contains an insertion of two a.a. between codons 68 and 69 of RT as well as an a.a. change at codon 67.
(§5) After 5 days of incubation a cellular viability assay was performed as described above. In this case, the amount of formazan reflects the number of cells protected by the drug against killing by the virus and is used as a read out for drug susceptibility.
Description for 3096: as §3, §4, §5
Description for 41+215Y: as §3, §4, §5
Description for 4602: as §3, §4, §5
Description for MT2 cells: After 5 days of incubation a cellular viability assay was performed as described above.

Turning to `CCCCC#CCSc1ccccc1OC(C)=O` [APHS, o-(acetoxyphenyl)hept-2-ynyl sulfide], the “inhibition of RSV replication” value in the data set with RSV serotype A is reported as “no inhibition of RSV replication”. Also, the IC50 was found to be 5 µM with 4602; 2.1 ± 1 µM with 41+215Y; 2 µM with 41+215Y (Human immunodeficiency virus 1, MT2, 120 h); 5 µM with 184V; 10 µM in the data set on HXB2; 7 µM with HIV-1AT. In addition, the IC50 was 11 µM with HIV-1HXB2, 4 µM in the data set on 3096, approximately 10 µM in data set [4] and 12 µM with HIV-1Ba-L. Besides, the “toxicity for MT2 cells” value in the data set on MT2 cells is “did not show any significant toxicity”. In addition, the “cellular viability significantly decreased at concentrations above” value with HEp-2 cells is given as “above 10 µM”. In the data set with HEp-2 cells, the “cytotoxicity for HEp-2 cells” value was “not cytotoxic”. The “cytotoxicity for HFF and BHK cells” value in the data set on HFF and BHK cells was “not cytotoxic”. Besides, in data set [1], the CC50 is 374 µM. The “toxicity in the rat air pouch model” value in data set [2] is “no toxicity”. Moreover, the CC50 at 168 h is 105 µM in “in vitro” and 147 µM in [3]. Besides, the “cytotoxic at concentrations above” value in the data set on PBMC is recorded as “above 30 µM”. For the same compound, the “cytotoxicity by microscopic observation” value with Mouse L cells is “not cytotoxic”. For the same compound, the “cytotoxicity for CrFK cells” value in the data set on CrFK cells is recorded as “not cytotoxic”. For the same compound, in the data set with MHV-A59, the “effect on MHV replication (CPE)” value is “no effect”.

The values above are taken from patent EP1452605A1, “Method for determining antiviral activity” (Universiteit Utrecht Holding B.V., priority 2003, dated 2004).
